# From US8426405B2, “Thiazopyrimidinones and uses thereof” (priority 2008, dated 2013)
# Tested on: HIV WT
# Assay: Phenosense (PhenoScreen) assay, WT
# Type: cell-based
# Conditions: wild type HIV, luciferase 48 h after infection
# Text: (§1) Monogram Bioscience' PhenoScreen assay allows the evaluation of integrase inhibitors for activity against a variety of HIV variants. The assay uses virus generated from 2 DNA constructs; one containing the HIV LTR, gag and pol regions, as well as a luciferase reporter gene in place of the viral envelope genes, and a second DNA construct containing the amphotrophic murine leukemia virus (A-MLV) envelope gene required to pseudotype virions and render them capable of entry into a target cell. Viruses generated using these constructs by transfection into a producer cell line such as 293T are capable of one-round of infection only. Successful integration events are directly proportional to the levels of luciferase expression 48 h after infection.
# (§2) The viral variants chosen by Avexa Ltd to screen their in-house integration inhibitors against consist of mutations within the viral integrase enzyme known to confer resistance to a number of known integration inhibitors published in the literature. In particular, the viral variants containing the Q148H/G140S double mutation in integrase, and the N155H/E92Q double mutation in integrase, represent two of the more common viruses identified to arise in patients that are failing treatment with Isentress (Raltegravir, MK-0518).
row,Structure (SMILES),Phenosense assay WT
1,CN1CCN(Cc2cn3c(=O)c(O)c(C(=O)NCc4ccc(Cl)c(Cl)c4)nc3s2)CC1,+++ (+++ indicates value between 0.001 μM and 1 μM)
2,CC(C)c1cn2c(=O)c(O)c(C(=O)NCc3ccc(Cl)c(Cl)c3)nc2s1,+++ (+++ indicates value between 0.001 μM and 1 μM)
3,O=C(NCc1ccc(F)cc1)c1nc2sc(CN3CCOCC3)cn2c(=O)c1O,++ (++ indicates value between 1 μM and 10 μM)
4,Cc1csc2nc(C(=O)NCc3ccc(Cl)c(Cl)c3)c(O)c(=O)n12,+++ (+++ indicates value between 0.001 μM and 1 μM)
5,O=C(NCc1ccc(Cl)c(Cl)c1)c1nc2sc(CN3CCOCC3)cn2c(=O)c1O,+++ (+++ indicates value between 0.001 μM and 1 μM)

# Tested on: HIV variant Y143R in integrase
# Assay: Phenosense (PhenoScreen) assay, Y143R
# Type: cell-based
# Conditions: not given
# Text: as §1, §2
row,Structure (SMILES),Phenosense assay Y143R
1,CN1CCN(Cc2cn3c(=O)c(O)c(C(=O)NCc4ccc(Cl)c(Cl)c4)nc3s2)CC1,+++ (+++ indicates value between 0.001 μM and 1 μM)
2,CC(C)c1cn2c(=O)c(O)c(C(=O)NCc3ccc(Cl)c(Cl)c3)nc2s1,+++ (+++ indicates value between 0.001 μM and 1 μM)
3,O=C(NCc1ccc(F)cc1)c1nc2sc(CN3CCOCC3)cn2c(=O)c1O,++ (++ indicates value between 1 μM and 10 μM)
4,Cc1csc2nc(C(=O)NCc3ccc(Cl)c(Cl)c3)c(O)c(=O)n12,+++ (+++ indicates value between 0.001 μM and 1 μM)
5,O=C(NCc1ccc(Cl)c(Cl)c1)c1nc2sc(CN3CCOCC3)cn2c(=O)c1O,+++ (+++ indicates value between 0.001 μM and 1 μM)

# Tested on: HIV variant N155H/E92Q double mutation in integrase
# Assay: Phenosense (PhenoScreen) assay, E92Q N155H
# Type: cell-based
# Conditions: not given
# Text: as §1, §2
row,Structure (SMILES),Phenosense assay E92Q N155H
1,CN1CCN(Cc2cn3c(=O)c(O)c(C(=O)NCc4ccc(Cl)c(Cl)c4)nc3s2)CC1,+ (+indicates value greater than 10 μM)
2,CC(C)c1cn2c(=O)c(O)c(C(=O)NCc3ccc(Cl)c(Cl)c3)nc2s1,+ (+indicates value greater than 10 μM)
3,O=C(NCc1ccc(F)cc1)c1nc2sc(CN3CCOCC3)cn2c(=O)c1O,+ (+indicates value greater than 10 μM)
4,Cc1csc2nc(C(=O)NCc3ccc(Cl)c(Cl)c3)c(O)c(=O)n12,+ (+indicates value greater than 10 μM)
5,O=C(NCc1ccc(Cl)c(Cl)c1)c1nc2sc(CN3CCOCC3)cn2c(=O)c1O,+ (+indicates value greater than 10 μM)

# Tested on: HIV variant Q148H/G140S double mutation in integrase
# Assay: Phenosense (PhenoScreen) assay, G140S Q148H
# Type: cell-based
# Conditions: not given
# Text: as §1, §2
row,Structure (SMILES),Phenosense assay G140S Q148H
1,CN1CCN(Cc2cn3c(=O)c(O)c(C(=O)NCc4ccc(Cl)c(Cl)c4)nc3s2)CC1,+ (+indicates value greater than 10 μM)
2,CC(C)c1cn2c(=O)c(O)c(C(=O)NCc3ccc(Cl)c(Cl)c3)nc2s1,+ (+indicates value greater than 10 μM)
3,O=C(NCc1ccc(F)cc1)c1nc2sc(CN3CCOCC3)cn2c(=O)c1O,+ (+indicates value greater than 10 μM)
4,Cc1csc2nc(C(=O)NCc3ccc(Cl)c(Cl)c3)c(O)c(=O)n12,+ (+indicates value greater than 10 μM)
5,O=C(NCc1ccc(Cl)c(Cl)c1)c1nc2sc(CN3CCOCC3)cn2c(=O)c1O,+ (+indicates value greater than 10 μM)

# Tested on: HIV variant T125K F121Y in integrase
# Assay: Phenosense (PhenoScreen) assay, T125K F121Y
# Type: cell-based
# Conditions: not given
# Text: as §1, §2
row,Structure (SMILES),Phenosense assay T125K F121Y
1,CN1CCN(Cc2cn3c(=O)c(O)c(C(=O)NCc4ccc(Cl)c(Cl)c4)nc3s2)CC1,+ (+indicates value greater than 10 μM)
2,CC(C)c1cn2c(=O)c(O)c(C(=O)NCc3ccc(Cl)c(Cl)c3)nc2s1,+ (+indicates value greater than 10 μM)
3,O=C(NCc1ccc(F)cc1)c1nc2sc(CN3CCOCC3)cn2c(=O)c1O,+ (+indicates value greater than 10 μM)
4,Cc1csc2nc(C(=O)NCc3ccc(Cl)c(Cl)c3)c(O)c(=O)n12,+ (+indicates value greater than 10 μM)
5,O=C(NCc1ccc(Cl)c(Cl)c1)c1nc2sc(CN3CCOCC3)cn2c(=O)c1O,+ (+indicates value greater than 10 μM)

# Tested on: HIV variant T661 S153Y in integrase
# Assay: Phenosense (PhenoScreen) assay, T661 S153Y
# Type: cell-based
# Conditions: not given
# Text: as §1, §2
row,Structure (SMILES),Phenosense assay T661 S153Y
1,CN1CCN(Cc2cn3c(=O)c(O)c(C(=O)NCc4ccc(Cl)c(Cl)c4)nc3s2)CC1,++ (++ indicates value between 1 μM and 10 μM)
2,CC(C)c1cn2c(=O)c(O)c(C(=O)NCc3ccc(Cl)c(Cl)c3)nc2s1,++ (++ indicates value between 1 μM and 10 μM)
3,O=C(NCc1ccc(F)cc1)c1nc2sc(CN3CCOCC3)cn2c(=O)c1O,+ (+indicates value greater than 10 μM)
4,Cc1csc2nc(C(=O)NCc3ccc(Cl)c(Cl)c3)c(O)c(=O)n12,+ (+indicates value greater than 10 μM)
5,O=C(NCc1ccc(Cl)c(Cl)c1)c1nc2sc(CN3CCOCC3)cn2c(=O)c1O,+ (+indicates value greater than 10 μM)

# Target: T1, HIV integrase wild type (Human immunodeficiency virus type 1 group M subtype B, UniProt P04585)
# T1 construct: The integrase coding region was then subject to PCR and cloned into a bacterial expression vector; made in house
# Assay: Strand transfer assay (enzyme assay), WT
# Type: biochemical, HIV-1
# Conditions: not given
# Text: (§3) HIV integrase was mutated within a shuttle vector (pGEM) containing the majority of the HIV-1 gag and pol sequence using site directed mutagenesis to generate integrase sequences that have been published as conferring resistance to published integrase inhibitors. These include, but are not limited to, mutations such as Q148K. The integrase coding region was then subject to PCR and cloned into a bacterial expression vector. The specific introduction of desired mutation(s) was confirmed by sequence analysis. Proteins were expressed, purified and used in strand transfer assays.
# (§4) A strand transfer assay procedure similar to that published (Ovenden et al. Phytochemistry. 2004 December; 65(24):3255-9.) is used. Briefly, 400 ng of the enzyme, wild type or drug resistant mutant, is mixed with the compound to be tested and incubated with 30 nM substrate DNA. The substrate DNA is designed to mimic HIV DNA termini that has undergone 3′end processing, and consists of the annealed U5 LTR sequence oligonucleotides tagged with Digoxigenin (DIG; 5′-[…]-DIG-3′) or biotin (5′-Bio-[…]-3′) so that each substrate has either a DIG or Bio tag on opposite strands. Reactions are carried out for 1 hr at 37° C. Products generated as a result of strand transfer activity are bound to streptavidin plates and detected using anti-DIG-alkaline phosphatase conjugate and p-nitro phenyl phosphate substrate.
row,Structure (SMILES),Enzyme WT
1,Cc1cn2c(=O)c(O)c(C(=O)NCc3ccc(F)cc3)nc2s1,++ (++ indicates value between 1 μM and 10 μM)
2,CN1CCN(Cc2cn3c(=O)c(O)c(C(=O)NCc4ccc(Cl)c(Cl)c4)nc3s2)CC1,+++ (+++ indicates value between 0.001 μM and 1 μM)
3,CC(C)c1cn2c(=O)c(O)c(C(=O)NCc3ccc(Cl)c(Cl)c3)nc2s1,+++ (+++ indicates value between 0.001 μM and 1 μM)
4,Cc1cn2c(=O)c(O)c(-c3ncc(Cc4ccc(F)c(Cl)c4)s3)nc2s1,+++ (+++ indicates value between 0.001 μM and 1 μM)
5,Cc1cn2c(=O)c(O)c(-c3ncc(Cc4ccc(Cl)c(Cl)c4)s3)nc2s1,+++ (+++ indicates value between 0.001 μM and 1 μM)
6,Cc1cn2c(=O)c(O)c(-c3ncc(Cc4ccc(Cl)cc4)s3)nc2s1,+++ (+++ indicates value between 0.001 μM and 1 μM)
7,O=C(NCc1ccc(F)cc1)c1nc2sc(CN3CCOCC3)cn2c(=O)c1O,++ (++ indicates value between 1 μM and 10 μM)
8,Cc1csc2nc(C(=O)NCc3ccc(Cl)c(Cl)c3)c(O)c(=O)n12,+++ (+++ indicates value between 0.001 μM and 1 μM)
9,Cc1cn2c(=O)c(O)c(C(=O)NCc3ccc(Cl)c(Cl)c3)nc2s1,+++ (+++ indicates value between 0.001 μM and 1 μM)
10,O=C(NCc1ccc(Cl)c(Cl)c1)c1nc2sc(CN3CCOCC3)cn2c(=O)c1O,+++ (+++ indicates value between 0.001 μM and 1 μM)

# Target: T2, HIV integrase E92Q/N155H (Human immunodeficiency virus type 1 group M subtype B, UniProt P04585, E1239Q/N1302H)
# T2 construct: The integrase coding region was then subject to PCR and cloned into a bacterial expression vector; made in house
# Assay: Strand transfer assay (enzyme assay), E92Q/N155H
# Type: biochemical, HIV-1
# Conditions: not given
# Text: as §3, §4
row,Structure (SMILES),Enzyme E92Q/N155H
1,Cc1cn2c(=O)c(O)c(-c3ncc(Cc4ccc(F)cc4)s3)nc2s1,+++ (+++ indicates value between 0.001 μM and 1 μM)
2,Cc1cn2c(=O)c(O)c(-c3ncc(Cc4ccc(F)c(Cl)c4)s3)nc2s1,++ (++ indicates value between 1 μM and 10 μM)
3,Cc1cn2c(=O)c(O)c(-c3ncc(Cc4ccc(Cl)c(Cl)c4)s3)nc2s1,++ (++ indicates value between 1 μM and 10 μM)
4,Cc1cn2c(=O)c(O)c(-c3ncc(Cc4ccc(Cl)cc4)s3)nc2s1,++ (++ indicates value between 1 μM and 10 μM)

# Target: T3, HIV integrase G140S/Q148H (Human immunodeficiency virus type 1 group M subtype B, UniProt P04585, G1287S/Q1295H)
# T3 construct: The integrase coding region was then subject to PCR and cloned into a bacterial expression vector; made in house
# Assay: Strand transfer assay (enzyme assay), G140S/Q148H
# Type: biochemical, HIV-1
# Conditions: not given
# Text: as §3, §4
row,Structure (SMILES),Enzyme G140S/Q148H
1,Cc1cn2c(=O)c(O)c(-c3ncc(Cc4ccc(F)c(Cl)c4)s3)nc2s1,++ (++ indicates value between 1 μM and 10 μM)
2,Cc1cn2c(=O)c(O)c(-c3ncc(Cc4ccc(Cl)c(Cl)c4)s3)nc2s1,+++ (+++ indicates value between 0.001 μM and 1 μM)
3,Cc1cn2c(=O)c(O)c(-c3ncc(Cc4ccc(Cl)cc4)s3)nc2s1,+ (+indicates value greater than 10 μM)
